Like-named read-outs stand apart in the source and are kept apart here.
Columns and labels:
[1] = test system: HT-1080 cells expressing IDH1R132C; experiment: 2-HG production inhibitory activity using HT1080 cell; type: cell-based, human; conditions: Homo sapiens
Description: Then, 100 μL of growth medium B was added to each well, further 25 μL of a solution of each compound diluted to a predetermined concentration with growth medium B was added to each well, and the cells were incubated at 37° C. for 2 days under 5% CO2. […] Then, 150 μL of ultrapure water was further added to each well, and the mixture was stirred by pipetting and stored at −20° C.
The preserved solutions were thawed at room temperature.

IDH1R132C = IDH1R132C (Homo sapiens (Human), UniProt O75874, R132C); experiment: Inhibitory activity against IDH1R132C enzyme (NADPH detection, WST-8); type: biochemical; conditions: 10 nM, residual NADPH detected with WST-8, read-out: Test Example 1 IDH1 R132C IC50
Sequence of IDH1R132C (O75874 whole entry R132C): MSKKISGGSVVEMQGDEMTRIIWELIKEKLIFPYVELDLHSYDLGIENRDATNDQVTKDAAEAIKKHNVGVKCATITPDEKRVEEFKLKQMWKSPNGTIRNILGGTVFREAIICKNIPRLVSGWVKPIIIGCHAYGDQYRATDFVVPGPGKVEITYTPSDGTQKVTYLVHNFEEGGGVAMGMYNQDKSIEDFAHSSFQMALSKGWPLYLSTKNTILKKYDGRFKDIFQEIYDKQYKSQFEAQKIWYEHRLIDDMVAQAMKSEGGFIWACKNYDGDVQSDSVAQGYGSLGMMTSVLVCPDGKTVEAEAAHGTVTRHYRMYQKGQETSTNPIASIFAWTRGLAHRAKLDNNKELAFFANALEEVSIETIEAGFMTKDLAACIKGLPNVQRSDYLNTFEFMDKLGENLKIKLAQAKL
Description: After transformation of Rosetta 2 (DE3) E. coli, the expression of the protein was induced with IPTG.
While NADPH-derived fluorescence was occasionally monitored, the reaction was terminated by the addition of 5 μL of 0.5 M EDTA before consumption of NADPH. 5 μL of WST-8 reagent (Dojindo Laboratories, #CK04) was further added and mixed therewith. 15 minutes later, the absorbance at 450 nm was measured using a plate reader (PerkinElmer, Inc., EnVision). The observed absorbance value reflects the amount of residual NADPH. From the absorbance data, the enzyme inhibitory activity of each compound at each concentration was calculated and analyzed using medical statistical analysis software GraphPad Prism to calculate an IC50 value.

[2] = HT-1080, 2-HG production, HT1080 cells, read-out: Test Example 3 IC50

Structure (SMILES) | IC50 [1, 2] [nM] | IC50 (IDH1R132C) [nM] | IC50 ([1]; HT-1080, read-out: Test Example 3 IC50 (nM)) [nM]
O=C(O)/C=C/c1cccc2c1ccn2C(=O)c1c(-c2c(Cl)cc(Cl)cc2Cl)noc1C1(F)COC1 [Example 6, (2E)-3-(1-{[5-(3-Fluorooxetan-3-yl)-3-(2,4,6-trichlorophenyl)-1,2-oxazol-4-yl]carbonyl}-1H-indol-4-yl)prop-2-enoic acid] | 459 | 151 | 
CC(C)(O)c1onc(-c2c(Cl)cccc2Cl)c1C(=O)n1ccc2c(/C=C/C(=O)O)cccc21 [Example 7, (2E)-3-(1-{[3-(2,6-Dichlorophenyl)-5-(2-hydroxypropan-2-yl)-1,2-oxazol-4-yl]carbonyl}-1H-indol-4-yl)prop-2-enoic acid] | 787 | 152 | 
CC1(c2onc(-c3c(Cl)cc(Cl)cc3Cl)c2C(=O)n2ccc3c(/C=C/C(=O)O)ccnc32)COC1 [Example 9, (2E)-3-(1-{[5-(3-Methyloxetan-3-yl)-3-(2,4,6-trichlorophenyl)-1,2-oxazol-4-yl]carbonyl}-1H-pyrrolo[2,3-b]pyridin-4-yl]prop-2-enoic acid] | 1270 | 107 | 
CC(C)(F)c1onc(-c2ccc(Cl)c(F)c2Cl)c1C(=O)n1cc2c3c(cccc31)/C(=C/C(=O)O)CC2 [Example 20, (2E)-[1-{[3-(2,4-Dichloro-3-fluorophenyl)-5-(2-fluoropropan-2-yl)-1,2-oxazol-4-yl]carbonyl}-3,4-dihydrobenzo[cd]indol-5(1H)-ylidene]ethanoic acid] | 435 | 267 | 
CC(C)c1onc(-c2c(Cl)cccc2Cl)c1C(=O)n1ccc2c(/C=C/C(=O)O)cccc21 [Example 23, (2E)-3-(1-{[3-(2,6-Dichlorophenyl)-5-(propan-2-yl)-1,2-oxazol-4-yl]carbonyl}-1H-indol-4-yl)prop-2-enoic acid] | 709 | 75 | 
CC(C)(C)c1onc(-c2c(Cl)cccc2Cl)c1C(=O)n1ccc2c(/C=C/C(=O)O)cccc21 [Example 24, (2E)-3-(1-{[5-(tert-Butyl)-3-(2,6-dichlorophenyl)-1,2-oxazol-4-yl]carbonyl}-1H-indol-4-yl)prop-2-enoic acid] | 255 | 182 | 
CC(C)c1onc(-c2c(Cl)ccc(F)c2Cl)c1C(=O)n1ccc2c(/C=C/C(=O)O)cccc21 [Example 28, (2E)-3-(1-{[3-(2,6-Dichloro-3-fluorophenyl)-5-(propan-2-yl)-1,2-oxazol-4-yl]carbonyl}-1H-indol-4-yl)prop-2-enoic acid] | 401 | 90 | 
Cc1cn(C(=O)c2c(-c3c(Cl)ccc(F)c3Cl)noc2C(C)C)c2cccc(/C=C/C(=O)O)c12 [Example 30, (2E)-3-(1-{[3-(2,6-Dichloro-3-fluorophenyl)-5-(propan-2-yl)-1,2-oxazol-4-yl]carbonyl}-3-methyl-1H-indol-4-yl)prop-2-enoic acid] | 350 | 114 | 
CC(C)(C)c1onc(-c2c(Cl)cc(Cl)cc2Cl)c1C(=O)N1CCc2c(/C=C/C(=O)O)cccc21 [Example 32, (2E)-3-(1-{[5-(tert-Butyl)-3-(2,4,6-trichlorophenyl)-1,2-oxazol-4-yl]carbonyl}-2,3-dihydro-1H-indol-4-yl)prop-2-enoic acid] | 413 | 176 | 
CC(C)(C)c1onc(-c2c(Cl)cccc2Br)c1C(=O)n1ccc2c(/C=C/C(=O)O)cccc21 [Example 39, (2E)-3-(1-{[3-(2-Bromo-6-chlorophenyl)-5-(tert-butyl)-1,2-oxazol-4-yl]carbonyl}-1H-indol-4-yl)prop-2-enoic acid] | 389 | 168 | 
Cc1cc(Cl)cc(Cl)c1-c1noc(C(C)(C)C)c1C(=O)n1ccc2c(/C=C/C(=O)O)cccc21 [Example 41, (2E)-3-(1-{[5-(tert-Butyl)-3-(2,4-dichloro-6-methylphenyl)-1,2-oxazol-4-yl]carbonyl}-1H-indol-4-yl)prop-2-enoic acid] | 254 | 280 | 
COc1cc(Cl)cc(Cl)c1-c1noc(C(C)(C)F)c1C(=O)n1cc(C)c2c(/C=C/C(=O)O)cccc21 [Example 58, (2E)-3-(1-{[3-(2,4-Dichloro-6-methoxyphenyl)-5-(2-fluoropropan-2-yl)-1,2-oxazol-4-yl]carbonyl}-3-methyl-1H-indol-4-yl)prop-2-enoic acid] | 295 | 178 | 
CC(=O)c1cn(C(=O)c2c(-c3c(Cl)cc(Cl)cc3Cl)noc2C(C)(C)F)c2cccc(/C=C/C(=O)O)c12 [Example 64, (2E)-3-(3-Acetyl-1-{[5-(2-fluoropropan-2-yl)-3-(2,4,6-trichlorophenyl)-1,2-oxazol-4-yl]carbonyl}-1H-indol-4-yl)prop-2-enoic acid] | > 2000 | 888 | 
C=Cc1ccc(-c2onc(-c3c(Cl)cc(Cl)cc3Cl)c2C(=O)n2ccc3c(/C=C/C(=O)O)cccc32)cn1 [Example 73, (2E)-3-(1-{[5-(6-Ethenylpyridin-3-yl)-3-(2,4,6-trichlorophenyl)-1,2-oxazol-4-yl]carbonyl}-1H-indol-4-yl)prop-2-enoic acid] |  | 208 | 7
NC[C@H]1CCN(c2onc(-c3c(Cl)cccc3Cl)c2C(=O)n2ccc3c(/C=C/C(=O)O)cccc32)C1 [Example 139, (2E)-3-[1-({5-[(3R)-3-(Aminomethyl)pyrrolidin-1-yl]-3-(2,6-dichlorophenyl)-1,2-oxazol-4-yl}carbonyl)-1H-indol-4-yl]prop-2-enoic acid] | 339 |  | 
NC[C@@H]1CCN(c2onc(-c3c(Cl)cccc3Cl)c2C(=O)n2ccc3c(/C=C/C(=O)O)cccc32)C1 [Example 140] |  | 1040 | 

Second part, led by results:

IC50 [1, 2] [nM] | IC50 (IDH1R132C) [nM] | Structure (SMILES) | IC50 ([1]; HT-1080, read-out: Test Example 3 IC50 (nM)) [nM]
42 |  | CCC1(c2onc(-c3c(Cl)cccc3Cl)c2C(=O)n2ccc3c(/C=C/C(=O)O)cccc32)COC1 [Example 5, (2E)-3-(1-{[3-(2,6-Dichlorophenyl)-5-(3-ethyloxetan-3-yl)-1,2-oxazol-4-yl]carbonyl}-1H-indol-4-yl)prop-2-enoic acid] | 
32 | 110 | COC1(c2onc(-c3c(F)cc(Cl)cc3Cl)c2C(=O)n2cc(C)c3c(/C=C/C(=O)O)cccc32)CCC1 [Example 14, (2E)-3-(1-{[3-(2,4-Dichloro-6-fluorophenyl)-5-(1-methoxycyclobutyl)-1,2-oxazol-4-yl]carbonyl}-3-methyl-1H-indol-4-yl]prop-2-enoic acid] | 
37 | 106 | COC1(c2onc(-c3c(F)cc(Cl)cc3Cl)c2C(=O)n2cc3c4c(cccc42)/C(=C/C(=O)O)CC3)CCC1 [Example 15, (2E)-[1-{[3-(2,4-Dichloro-6-fluorophenyl)-5-(1-methoxycyclobutyl)-1,2-oxazol-4-yl]carbonyl}-3,4-dihydrobenzo[cd]indol-5(1H)-ylidene]ethanoic acid] | 
242 | 201 | Cc1cn(C(=O)c2c(-c3ccc(Cl)c(F)c3Cl)noc2C(C)(C)F)c2cccc(/C=C/C(=O)O)c12 [Example 17] | 
248 | 326 | Cc1cn(C(=O)c2c(-c3c(Cl)cccc3Cl)noc2C(C)C)c2cccc(/C=C/C(=O)O)c12 [Example 25, (2E)-3-(1-{[3-(2,6-Dichlorophenyl)-5-(propan-2-yl)-1,2-oxazol-4-yl]carbonyl}-3-methyl-1H-indol-4-yl)prop-2-enoic acid] | 
248 | 253 | CC(C)c1onc(-c2c(Cl)cc(Cl)cc2Cl)c1C(=O)n1ccc2c(/C=C/C(=O)O)cccc21 [Example 26, (2E)-3-(1-{[5-(Propan-2-yl)-3-(2,4,6-Trichlorophenyl)-1,2-oxazol-4-yl]carbonyl}-1H-indol-4-yl)prop-2-enoic acid] | 
128 | 160 | COC(C)(C)c1onc(-c2c(Cl)cccc2Cl)c1C(=O)n1ccc2c(/C=C/C(=O)O)cccc21 [Example 27, (2E)-3-(1-{[3-(2,6-Dichlorophenyl)-5-(2-methoxypropan-2-yl)-1,2-oxazol-4-yl]carbonyl}-1H-indol-4-yl)prop-2-enoic acid] | 
24 | 57 | COC(C)(C)c1onc(-c2c(Cl)cc(Cl)cc2Cl)c1C(=O)n1ccc2c(/C=C/C(=O)O)cccc21 [Example 31, (2E)-3-(1-{[5-(2-Methoxypropan-2-yl)-3-(2,4,6-trichlorophenyl)-1,2-oxazol-4-yl]carbonyl}-1H-indol-4-yl)prop-2-enoic acid] | 
60 | 114 | CC(C)(F)c1onc(-c2c(Cl)cc(Cl)cc2Cl)c1C(=O)n1cc(F)c2c(/C=C/C(=O)O)cccc21 [Example 45, (2E)-3-(3-Fluoro-1-{[5-(2-fluoropropan-2-yl)-3-(2,4,6-trichlorophenyl)-1,2-oxazol-4-yl]carbonyl}-1H-indol-4-yl)prop-2-enoic acid] | 
138 | 118 | CC1(c2onc(-c3c(Cl)cccc3Cl)c2C(=O)n2ccc3c(/C=C/C(=O)O)cccc32)COC1 [Example 75, (2E)-3-(1-{[3-(2,6-Dichlorophenyl)-5-(3-methyloxetan-3-yl)-1,2-oxazol-4-yl]carbonyl}-1H-indol-4-yl)prop-2-enoic acid] | 
118 | 94 | COC1(c2onc(-c3c(Cl)cccc3Cl)c2C(=O)n2ccc3c(/C=C/C(=O)O)cccc32)COC1 [Example 76, (2E)-3-(1-{[3-(2,6-Dichlorophenyl)-5-(3-methoxyoxetan-3-yl)-1,2-oxazol-4-yl]carbonyl}-1H-indol-4-yl)prop-2-enoic acid] | 

Reference: patent US10040791B2, “Isoxazole derivative as mutant isocitrate dehydrogenase 1 inhibitor” (Daiichi Sankyo Company, Limited, priority 2014, dated 2018)
